Data taken from patent US12416034B2, “Recombinant production of steviol glycosides” (EVOLVA SA, priority 2011, dated 2025).

Legend:
[1] = In vitro assay of lysates of EUGT11-expressing cells after permeabilization treatment; format: biochemical, S. cerevisiae; conditions: lysates of EUGT11 transformants, untreated or after LiAC/PEG, Triton X100 or LS treatment
Experimental: Experiments were done to establish conditions for permeabilization in E. coli and in yeast. Growing cells (S. cerevisiae or E. coli) were treated with different concentrations/combinations of permeabilization agents: toluene, chloroform and ethanol for permeabilization of S. cerevisiae, and guanidine, lactic acid, DMSO and/or Triton X-100 for permeabilization of E. coli. Tolerance of both model organisms to high concentrations of RebA and other potential substrates also was evaluated. The permeabilization was measured by the amount of RebD produced from a EUGT11-expressing organism after incubation in a RebA containing medium (feeding experiment). Enzyme activity was monitored before and after exposure to the permeabilizing agents by lysing the cells and analyzing the activity of the released UGTs in an in vitro assay.
Treatment with Triton X-100 0.3% or 0.5%, however, increased the amount of RebD above background levels (see FIG. 18) while sustaining the activity of EUGT11. For Triton X-100 assays, overnight cultures were washed three times in PBS buffer. Cells corresponding to 6 OD600 units were resuspended in PBS containing 0.3% or 0.5% Triton X-100 respectively. […]
Lysates from transformants expressing EUGT11 were able to convert some RebA into RebD (8 to 50 μM were measured in the reactions) when cells were untreated or after treatment with LiAC/PEG or Triton X100.

[2] = UDP-glucose regenerating activity of sucrose synthase; format: biochemical; conditions: 1 mM UDP, ~200 mM sucrose, 37° C., 24 h
Experimental: Experiments were performed to evaluate the UDP-glucose regenerating activity of the purified GST-AtSUS1 and GST-SrSUS1. In vitro assays were conducted in 100 mM Tris-HCl pH=7.5 and 1 mM UDP (final concentration). Either ˜2.4 μg of purified GST-AtSUS1, ˜0.15 μg of GST-SrSUS1, or ˜1.5 μg commercial BSA (New England Biolabs, Ipswich, MA) were also added. Reactions were done in presence or absence of ˜200 mM sucrose and incubated at 37° C. for 24 h. Product UDP-glucose was measured by HPLC as described in the analytical section. AtSUS1 produced ˜0.8 mM UDP-glucose when sucrose was present. […] The lack of activity observed for SrSUS1 could be explained by the poor quality and concentration of the purified enzyme. UDP-glucose production by AtSUS1 was sucrose dependent and, therefore, it was concluded that AtSUS1 can be used in a coupled reaction to regenerate the UDP-glucose used by EUGT1 or other UGTs for small molecule glycosylation (FIG. 11, above).

[3] = Coupled AtSUS/EUGT11 reaction, RebD formation; format: biochemical; conditions: ~200 mM sucrose, 1 mM UDP, 100 μM RebA, GST-AtSUS1 and GST-EUGT11
Experimental: SUS catalyzes the formation of UDP-glucose and fructose from sucrose and from UDP as depicted in FIG. 11. This UDP-glucose then can be used by EUGT11 for glycosylation of RebA to produce RebD. In vitro assays as described above were performed, adding ˜200 mM sucrose, 1 mM UDP, 100 μM RebA, ˜1.6 μg purified GST-AtSUS1 and ˜0.8 μg GST-EUGT11. Formation of product, RebD, was evaluated by LC-MS. When AtSUS, EUGT11, sucrose and UDP were mixed with RebA, 81±5 μM of RebD was formed. The reaction was dependent on the presence of AtSUS, EUGT11 and sucrose. The conversion rate was similar to what has been observed previously using UDP-glucose provided extraneously.

[4] = test system: ERG9; assay: Amorphadiene production (indirect FPP accumulation), GC-MS; format: cell-based, S. cerevisiae; conditions: 72 h, construct in front of ERG9
Description: DNA fragments encompassing an ERG9 promoter upstream sequence (for homologous recombination), an expression cassette for the gene (NatR) that confers resistance to Nourseothricin, a CYC1 promoter (SEQ ID NO: 185, FIG. 21), a 5′ UTR sequence with a stemloop structure, and an ERG9 ORF sequence (for homologous recombination) were generated by PCR. DNA fragments that contained either the CYC1 promoter or the KEX2 promoter (SEQ ID NO: 186) but no stemloops were also generated as controls. The flanking ERG9 sequences for recombination as well as the stemloop structure were introduced via the PCR oligos. The DNA fragments were transformed into an S. cerevisiae host strain that subsequently was selected on nourseothricin containing growth plates. […]
The Amorpha-4,11-diene Synthase (ADS) gene catalyzes the chemical reaction that turns one FPP molecule into Amorpha-4,11-diene in the plant Artemisia annua. […] Amorpha-4,11-diene production was measured and compared to the standard compound caryophyllene, as described by (Ro et al. 2006. Nature 440(7086):940-943; Paradise et al. Biotechnol Bioeng. 2008 Jun. 1; 100(2):371-8; Newman et al. Biotechnol Bioeng 95(4):684-691).
Engineered yeast strains were grown in SC 2% glucose with uracil dropped out. […] 10 μl of the dodecane layer was sampled and diluted 100 fold in ethyl acetate for quantification by GC-MS […]

[5] = test system: Saccharomyces cerevisiae EFSC1923; assay: Steviol 19-O-monoside production in EFSC1923 with plasmid-expressed enzymes; format: cell-based; conditions: shake flask, co-expressed with KAH-3
Experimental: The 150 nucleotides at the 5′ end of the Zea mays CDP synthase coding sequence in Table 15 (SEQ ID NO:157, see FIG. 14) was deleted, the remainder of the coding sequence was provided with a new translation start ATG, and the truncated sequence was operably linked to the GPD1 promoter in the multicopy plasmid p423GPD in Saccharomyces cerevisiae EFSC1923. Plasmid p423GPD is described in Mumberg, D et al, Gene, 156: 119-122(1995). EFSC1923 and EFSC1923 plus p423GPD-Z.m.tCDPS were grown in for 96 hours in selective yeast medium containing 4% glucose. The amount of steviol 19-O-monoside produced by EFSC1923+p423GPD-Z.m.tCDPS (the truncated Zea mays CDPS) under these conditions was approximately 2.5 fold more than that produced by EFSC1923 without the plasmid.
The Arabidopsis thaliana KAH coding sequence from Table 15 was inserted in a multicopy plasmid designated p426GPD, under the control of the GPD1 promoter. Plasmid p426GPD is described in Mumberg, D et al, Gene. 156: 119-122(1995).
EFSC1923 was transformed with both p423GPD-Z.m.tCDPS and p426 p426GPD-A.t.KAH.
A bifunctional CDPS-KS from Gibberella fujikuroi (NCBI Accession no: Q9UVY5.1, FIG. 15) was cloned and compared to the truncated CDPS-5. […]

With CCCCCCCCCCCCN(C)CC(=O)O [LS, N-lauryl sarcosine] the “RebD measured in reactions of lysates” value [1] was “no RebD was measured”.

In the case of “AtSUS1: A. thaliana SUS1 sucrose synthase”, the UDP-glucose produced [2] is reported as ~0.8 mM and the RebD formed [3] is reported as 81 ± 5 µM.

In the case of “SEQ ID NO: 181: heterologous insert TGAATTCGTTAACGAATTC behind the CYC1 promoter in front of ERG9 (expressed or natural sequence)”, the “increased production of amorphadiene” value [4] is reported as 2.5 ×.

B1: bifunctional CDPS-KS: bifunctional CDPS-KS from Gibberella fujikuroi, NCBI Accession no Q9UVY5.1 (protein, listed as Gibberella fujikuroi)
chain: MPGKIENGTPKDLKTGNDFVSAAKSLLDRAFKSHHSYYGLCSTSCQVYDTAWVAMIPKTRDNVKQWLFPECFHYLLKTQAADGSWGSLPTTQTAGILDTASAVLALLCHAQEPLQILDVSPDEMGLRIEHGVTSLKRQLAVWNDVEDTNHIGVEFIIPALLSMLEKELDVPSFEFPCRSILERMHGEKLGHFDLEQVYGKPSSLLHSLEAFLGKLDFDRLSHHLYHGSMMASPSSTAAYLIGATKWDDEAEDYLRHVMRNGAGHGNGGISGTFPTTHFECSWIIATLLKVGFTLKQIDGDGLRGLSTILLEALRDENGVIGFAPRTADVDDTAKALLALSLVNQPVSPDIMIKVFEGKDHFTTFGSERDPSLTSNLHVLLSLLKQSNLSQYHPQILKTTLFTCRWWWGSDHCVKDKWNLSHLYPTMLLVEAFTEVLHLIDGGELSSLFDESFKCKIGLSIFQAVLRIILTQDNDGSWRGYREQTCYAILALVQARHVCFFTHMVDRLQSCVDRGFSWLKSCSFHSQDLTWTSKTAYEVGFVAEAYKLAALQSASLEVPAATIGHSVTSAVPSSDLEKYMRLVRKTALFSPLDEWGLMASIIESSFFVPLLQAQRVEIYPRDNIKVDEDKYLSIIPFTWVGCNNRSRTFASNRWLYDMMYLSLLGYQTDEYMEAVAGPVFGDVSLLHQTIDKVIDNTMGNLARANGTVHSGNGHQHESPNIGQVEDTLTRFTNSVLNHKDVLNSSSSDQDTLRREFRTFMHAHITQIEDNSRFSKQASSDAFSSPEQSYFQWVNSTGGSHVACAYSFAFSNCLMSANLLQGKDAFPSGTQKYLISSVMRHATNMCRMYNDFGSIARDNAERNVNSIHFPEFTLCNGTSQNLDERKERLLKIATYEQGYLDRALEALERQSRDDAGDRAGSKDMRKLKIVKLFCDVTDLYDQLYVIKDLSSSMK
With B1 the “activity in producing steviol 19-O-monoside relative to EFSC1923 with the KAH-3 alone” value [5] was “about 5.8 times”.
